Assay [1] deals with SJSA-1 osteosarcoma cell line. In words: MTT cell viability assay. The assay is classed as cell-based. Conditions: Homo sapiens, SJSA-1, 72 h, 72 h incubation, average of 2-5 experiments. The protocol: The effect of the invented p53-Mdm2 inhibitors on cell viability has been assessed using MTT assay. It is a colorimetric assay that measures conversion of tetrazolium ring of the soluble yellow dye (MTT) into insoluble purple formazan. This process is catalysed solely in mitochondrial dehydrogenases of living cells.
Cells were seeded on 96-well plates and then treated with successive dilutions of tested compounds. After 72 h incubation, MTT was added to the final concentration 0.5 mg/ml. The cells were further incubated for the next 4 h. Then the solution was drained and the remaining formazan crystals were dissolved in 100 μl DMSO. […] All the MTT experiments were independently repeated 2-5 times. Dose-dependent binding curves and IC50 values were calculated using GraphPad Prism 5.

For assay [2], the target named is T1, p53-Mdm2 interaction (N-terminal domain of Mdm2 protein, amino acids 1-111) (Homo sapiens, UniProt Q00987).
T1 construct: N-terminal domain of Mdm2 protein (amino acids 1-111)
T1 sequence (Q00987 1-111): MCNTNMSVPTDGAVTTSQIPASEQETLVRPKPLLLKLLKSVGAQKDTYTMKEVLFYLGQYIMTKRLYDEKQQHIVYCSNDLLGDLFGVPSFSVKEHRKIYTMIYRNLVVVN
Briefly: Fluorescence polarization (FP) binding assay of p53-Mdm2 interaction. Conditions: for Ki: FP assay, 130 nM Mdm2, FAM-labelled p53 peptide, Ki transformed from IC50 using Kenakin equation; for times more potent than the corresponding S/R (racemic) mixture: enantiopure S isomers vs racemic Compounds 71, 93 and 72, respectively. The method, boiled down:
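N-terminal Mdm2 (aa 1-111) at 130 nM preincubated 15 min with compound (5% DMSO) in PBS, 0.1% CHAPS, 5 mM DTT, then […] FAM-labelled p53 peptide added. Polarization read after 90 min at room temperature (ex 470/em 520 nm). IC50 converted to Ki by Kenakin equation.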
For orientation: In fluorescence polarisation assays a small probe gives low polarisation when free and higher when bound to something large.

`COc1ccc(N)cc1-n1cc2c(c1C(C)C)C1(C(=O)Nc3cc(Cl)ccc31)N(c1cc(Cl)ccc1C)C2=O` (stereo not drawn) [Compound 96, 5′-(5-amino-2-methoxyphenyl)-6-chloro-2′-(5-chloro-2-methylphenyl)-6′-(propan-2-yl)-1,2,3′,5′-tetrahydro-2′H-spiro [indole-3,1′-pyrrolo[3,4-c]pyrrole]-2,3′-dione] came in with an IC50 in assay [1] of 0.3 µM. In assay [2], this compound gave a Ki of 4 nM.
`CCc1ccccc1-n1nc2c(c1C(C)C)C1(C(=O)Nc3cc(Cl)ccc31)N(c1cc(Cl)ccc1C)C2=O` (stereo not drawn) [Compound 67, 6-chloro-5′-(5-chloro-2-methylphenyl)-2′-(2-ethylphenyl)-3′-(propan-2-yl)-1,2,5′,6′-tetrahydro-2′H-spiro[indole-3,4′-pyrrolo [3,4-c]pyrazole]-2,6′-dione] displayed an IC50 in assay [1] of 12.4 µM. In assay [2], this compound displayed a Ki of 86 nM.
In turn, `NC(=O)CSC1=C(c2ccccc2)C2(C(=O)Nc3cc(Cl)ccc32)N(c2cccc(Cl)c2)C1=O` (stereo not drawn) [Compound 53, 2-[6-chloro-1′-(3-chlorophenyl)-2,5′-dioxo-3′-phenyl-1,1′,2,5′-tetrahydrospiro [indole-3,2′-pyrrole]-4′-ylsulfanyl] acetamide] displayed an IC50 in assay [1] of 29.6 µM. In assay [2], the Ki turned out to be 581 nM.
The corresponding values for `COc1ccc(Cl)cc1N1C(=O)c2n[nH]c(C3(C)CC3)c2C12C(=O)Nc1cc(Cl)ccc12` (stereo not drawn) [Compound 22, 6-chloro-5′-(5-chloro-2-methoxyphenyl)-3′-(1-methylcyclopropyl)-1,2,5′,6′-tetrahydro-2′H-spiro[indole-3,4′-pyrrolo [3,4-c]pyrazole]-2,6′-dione] are 6.95 µM and 120 nM.
For `CCc1ccccc1-n1nc2c(c1CC)C1(C(=O)Nc3cc(Cl)ccc31)N(c1cc(Cl)ccc1C)C2=O` (stereo not drawn) [Compound 85, 6-chloro-5′-(5-chloro-2-methylphenyl)-3′-ethyl-2′-(2-ethylphenyl)-1,2,5′,6′-tetrahydro-2′H-spiro[indole-3,4′-pyrrolo [3,4-c]pyrazole]-2,6′-dione], in that order: 13 µM and 86 nM.
The corresponding values for `COc1ccc(NC(C)=O)cc1-n1cc2c(c1C(C)C)C1(C(=O)Nc3cc(Cl)ccc31)N(c1cc(Cl)ccc1C)C2=O` (stereo not drawn) [Compound 97, N-{3-[6-chloro-2′-(5-chloro-2-methylphenyl)-2,3′-dioxo-6′-(propan-2-yl)-1,2,3′,5′-tetrahydro-2′H-spiro[indole-3,1′-pyrrolo[3,4-c]pyrrole]-5′-yl]-4-methoxyphenyl}acetamide] are 0.3 µM and 3.4 nM.
As for `COc1ccccc1-n1cc2c(c1C(C)C)C1(C(=O)Nc3cc(Cl)ccc31)N(c1cc(Cl)ccc1C(N)=O)C2=O` (stereo not drawn) [Compound 99, 4-chloro-2-[6-chloro-5′-(2-methoxy-phenyl)-2,3′-dioxo-6′-(propan-2-yl)-1,2,3′,5′-tetrahydro-2′H-spiro[indole-3,1′-pyrrolo[3,4-c]pyrrole]-2′-yl]benzamide], half-maximal inhibition in assay [1] (IC50) required 0.65 µM. Further, the Ki in assay [2] was determined as 6.7 nM.
On to `COc1ccc(-n2cc3c(c2C(C)C)[C@@]2(C(=O)Nc4cc(Cl)ccc42)N(c2cc(Cl)ccc2C)C3=O)c(OC)c1` [Compound 107, (3S)-6-chloro-2′-(5-chloro-2-methylphenyl)-5′-(2,4-dimethoxyphenyl)-6′-(propan-2-yl)-1,2,3′,5′-tetrahydro-2′H-spiro[indole-3,1′-pyrrolo[3,4-c]pyrrole]-2,3′-dione], for which 0.06 µM corresponded to half-maximal inhibition in assay [1] (IC50). Moreover, in assay [2], the Ki amounted to 1.9 nM and the “times more potent than the corresponding S/R (racemic) mixture” value is recorded as “about 2 times”.
`CC1(c2c3c(nn2CC2CCCN2)C(=O)N(c2cccc(Cl)c2)C32C(=O)Nc3cc(Cl)ccc32)CC1` (stereo not drawn) [Compound 28, 6-chloro-5′-(3-chlorophenyl)-3′-(1-methylcyclopropyl)-2′-(pyrrolidin-2-ylmethyl)-1,2,5′,6′-tetrahydro-2′H-spiro [indole-3,4′-pyrrolo[3,4-c]pyrazole]-2,6′-dione]: the IC50 in assay [1] is 32 µM. Further, in assay [2], the Ki worked out at 1460 nM.
The corresponding values for `COc1cc2[nH]c(=O)[nH]c2cc1-n1cc2c(c1C(C)C)C1(C(=O)Nc3cc(Cl)ccc31)N(c1cc(Cl)ccc1C)C2=O` (stereo not drawn) [Compound 101, 6-chloro-2′-(5-chloro-2-methylphenyl)-5′-(6-methoxy-2-oxo-2,3-dihydro-1H-1,3-benzodiazol-5-yl)-6′-(propan-2-yl)-1,2,3′,5′-tetrahydro-2′H-spiro[indole-3,1′-pyrrolo[3,4-c]pyrrole]-2,3′-dione] are 1.77 µM and 4.7 nM.
Compound `COc1ccccc1-n1cc2c(c1C(C)C)C1(C(=O)Nc3cc(Cl)ccc31)N(c1cc(Cl)ccc1[N+](=O)[O-])C2=O` (stereo not drawn) [Compound 90, 6-chloro-2′-(5-chloro-2-nitrophenyl)-5′-(2-methoxyphenyl)-6′-(propan-2-yl)-1,2,3′,5′-tetrahydro-2′H-spiro[indole-3,1′-pyrrolo [3,4-c]pyrrole]-2,3′-dione] came in with an IC50 in assay [1] of 6.19 µM. The affinity in assay [2] corresponds to a Ki of 33 nM.
For `COC(=O)/C=C/COc1ccc(Cl)cc1N1C(=O)c2nn(-c3ccccc3OC)c(C(C)C)c2C12C(=O)Nc1cc(Cl)ccc12` (stereo not drawn) [Compound 62, methyl (2E)-4-{4-chloro-2-[6-chloro-2′-(2-methoxyphenyl)-2,6′-dioxo-3′-(propan-2-yl)-1,2,5′,6′-tetrahydro-2′H-spiro[indole-3,4′-pyrrolo[3,4-c]pyrazole]-5′-yl]phenoxy}but-2-enoate], in that order: 2.23 µM and 11 nM.
For `COc1ccccc1-n1nc2c(c1C(C)C)C1(C(=O)Nc3cc(Cl)ccc31)N(c1cc(Cl)cnc1C)C2=O` (stereo not drawn) [Compound 71, 6-chloro-5′-(5-chloro-2-methylpyridin-3-yl)-2′-(2-methoxyphenyl)-3′-(propan-2-yl)-1,2,5′,6′-tetrahydro-2′H-spiro[indole-3,4′-pyrrolo[3,4-c]pyrazole]-2,6′-dione], in that order: 0.46 µM and 4.3 nM.
For `CO[C@H]1CNCC[C@H]1n1cc2c(c1C(C)C)[C@@]1(C(=O)Nc3cc(Cl)ccc31)N(c1cc(Cl)ccc1C)C2=O` [Compound 103, (3S)-6-chloro-2′-(5-chloro-2-methyl-phenyl)-5′-[(3S,4R)-3-methoxy-piperidin-4-yl]-6′-(propan-2-yl)-1,2,3′,5′-tetrahydro-2′H-spiro[indole-3,1′-pyrrolo [3,4-c]pyrrole]-2,3′-dione], in that order: 2.2 µM and 4.5 nM.
`COc1ccc(NC(C)=O)cc1-n1cc2c(c1C(C)C)[C@@]1(C(=O)Nc3cc(Cl)ccc31)N(c1cc(Cl)ccc1C)C2=O` [Compound 108, N-{3-[(3S)-6-chloro-2′-(5-chloro-2-methylphenyl)-2,3′-dioxo-6′-(propan-2-yl)-1,2,3′,5′-tetrahydro-2′H-spiro[indole-3,1′-pyrrolo[3,4-c]pyrrole]-5′-yl]-4-methoxyphenyl}acetamide] registered an IC50 in assay [1] of 0.35 µM. The compound also returned a Ki in assay [2] of 1.6 nM.
In assay [1], `COc1ccccc1-n1nc2c(c1C(C)C)[C@@]1(C(=O)Nc3cc(Cl)ccc31)N(c1cc(Cl)cnc1C)C2=O` [Compound 80, (3S)-6-chloro-5′-(5-chloro-2-methyl-pyridin-3-yl)-2′-(2-methoxyphenyl)-3′-(propan-2-yl)-1,2,5′,6′-tetrahydro-2′H-spiro [indole-3,4′-pyrrolo[3,4-c]pyrazole]-2,6′-dione] registered an IC50 of 0.28 µM. Further, in assay [2], the affinity corresponds to a Ki of 1.9 nM and the “times more potent than the corresponding S/R (racemic) mixture” value is listed as “about 2 times”.
Turning to `COc1ccc(Cl)cc1N1C(=O)c2n[nH]c(C(C)(C)C)c2C12C(=O)Nc1cc(Cl)ccc12` (stereo not drawn) [Compound 21, 3′-tert-butyl-6-chloro-5′-(5-chloro-2-methoxyphenyl)-1,2,5′,6′-tetrahydro-2′H-spiro[indole-3,4′-pyrrolo[3,4-c]pyrazole]-2,6′-dione], the IC50 in assay [1] was 15.1 µM. The compound also returned a Ki in assay [2] of 70 nM.
The compound `COc1ccccc1-n1nc2c(c1C(C)C)C1(C(=O)Nc3cc(Cl)ccc31)N(c1cc(Cl)ccc1C)C2=O` (stereo not drawn) [Compound 31, 6-chloro-5′-(5-chloro-2-methylphenyl)-2′-(2-methoxyphenyl)-3′-(propan-2-yl)-1,2,5′,6′-tetrahydro-2′H-spiro[indole-3,4′-pyrrolo[3,4-c]pyrazole]-2,6′-dione] returned an IC50 in assay [1] of 0.53 µM. The compound also registered a Ki in assay [2] of 4.7 nM.
For `COc1ccc(N)cc1-n1cc2c(c1C(C)C)[C@@]1(C(=O)Nc3cc(Cl)ccc31)N(c1cc(Cl)ccc1C)C2=O` [Compound 109, (3S)-5′-(5-amino-2-methoxyphenyl)-6-chloro-2′-(5-chloro-2-methylphenyl)-6′-(propan-2-yl)-1,2,3′,5′-tetrahydro-2′H-spiro[indole-3,1′-pyrrolo[3,4-c]pyrrole]-2,3′-dione], in that order: 0.07 µM and 1.3 nM.
The corresponding values for `COC(=O)c1ccc(OC)c(-n2nc3c(c2C(C)C)C2(C(=O)Nc4cc(Cl)ccc42)N(c2cc(Cl)ccc2C)C3=O)c1` (stereo not drawn) [Compound 78, methyl 3-[6-chloro-5′-(5-chloro-2-methylphenyl)-2,6′-dioxo-3′-(propan-2-yl)-1,2,5′,6′-tetrahydro-2′H-spiro[indole-3,4′-pyrrolo[3,4-c]pyrazol]-2′-yl]-4-methoxybenzoate] are 0.36 µM and 3.4 nM.

For orientation: IC50 means the concentration that inhibits the measured activity by half. Lower therefore signals higher potency. The Ki is the equilibrium dissociation constant of an inhibitor or competing ligand from its target. A lower Ki goes with higher affinity.

The record behind these values is patent publication US20170129903A1, “COMPOUNDS COMPRISING 1,1a,2,5a-TETRAHYDROSPIRO[INDOLE-3,2a-PYRROLE]-2,5a-DIONE SYSTEM AS INHIBITORS P53-MDM2 PROTEIN-PROTEIN INTERACTION” (ADAMED SP. Z O.O., priority 2014, published 2017).
